pEC50, pIC50: −log10 of the molar value.
Tests used:
[1] = test system: Human immunodeficiency virus 1; assay: Antiviral activity against HIV1 Rf infected in CEM cells assessed as inhibition of viral replication after 5 days; format: functional, organism-based; conditions: Human immunodeficiency virus 1, Rf, CCRF-CEM, 120 h
[2] = test system: CCRF-CEM; assay: Cytotoxicity against human CEM cells; format: functional
[3] = target: T1, Human immunodeficiency virus type 1 integrase (Human immunodeficiency virus 1, UniProt Q7ZJM1); assay: Inhibition of HIV1 integrase 3' processing activity
T1 sequence (Q7ZJM1 whole entry): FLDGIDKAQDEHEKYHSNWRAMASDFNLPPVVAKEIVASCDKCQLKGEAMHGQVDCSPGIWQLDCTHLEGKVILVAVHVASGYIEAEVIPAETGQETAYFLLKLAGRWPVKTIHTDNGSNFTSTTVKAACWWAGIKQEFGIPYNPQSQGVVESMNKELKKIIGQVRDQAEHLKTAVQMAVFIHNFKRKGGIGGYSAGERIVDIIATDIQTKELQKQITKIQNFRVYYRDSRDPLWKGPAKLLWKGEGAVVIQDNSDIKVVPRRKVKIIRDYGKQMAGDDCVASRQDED

[4] = target: T1, Human immunodeficiency virus type 1 integrase; assay: Inhibition of HIV1 integrase 3' strand transfer activity
[5] = Cmax in rat at 5 mg/kg, po; format: ADME, organism-based; set-up: dose 5 mg/kg, route oral; conditions: in vivo
[6] = Half life in rat at 5 mg/kg, po; format: ADME, organism-based; set-up: dose 5 mg/kg, route oral; conditions: in vivo
[7] = Oral bioavailability in rat at 5 mg/kg; format: ADME, organism-based; conditions: in vivo
[8] = Cmax in rat at 2 mg/kg, iv; conditions: in vivo
[9] = Half life in rat at 2 mg/kg, iv; conditions: in vivo
[10] = Tmax in rat at 5 mg/kg, po and 2 mg/kg, iv; conditions: in vivo
[11] = Plasma clearance in rat at 5 mg/kg, po and 2 mg/kg, iv
[12] = test system: Rattus norvegicus; assay: Volume of distribution at steady state in rat at 5 mg/kg, po and 2 mg/kg, iv; conditions: in vivo

| SMILES | pEC50 [1] | CC50 [2] | pIC50 [3] | pIC50 [4] | other results |
| --- | --- | --- | --- | --- | --- |
| CC1(C)C=Cc2c(ccc3c2C(=O)C(O)=C(C2=C(C4=C(O)C(=O)c5c(ccc6c5C=CC(C)(C)O6)C4=O)C(=O)c4ccccc4C2=O)C3=O)O1 | 7.54 | 10 µM | 5.60 | 5.70 | – |
| COc1ccc2c(c1)C(=O)C(C1=C(O)C(=O)c3c(ccc4c3C=CC(C)(C)O4)C1=O)=C(C1=C(O)C(=O)c3c(ccc4c3C=CC(C)(C)O4)C1=O)C2=O | 7.57 | 10 µM | 5.64 | 5.60 | – |
| CCCOc1ccc2c(c1)C(=O)C(C1=C(O)C(=O)c3c(ccc4c3C=CC(C)(C)O4)C1=O)=C(C1=C(O)C(=O)c3c(ccc4c3C=CC(C)(C)O4)C1=O)C2=O | 8.05 | 1 µM | 5.55 | 5.30 | – |
| CC(C)Oc1ccc2c(c1)C(=O)C(C1=C(O)C(=O)c3c(ccc4c3C=CC(C)(C)O4)C1=O)=C(C1=C(O)C(=O)c3c(ccc4c3C=CC(C)(C)O4)C1=O)C2=O | 6.62 | > 20 µM | 5.52 | < 4.00 | – |
| CC1(C)C=Cc2c(ccc3c2C(=O)C(O)=C(C2=C(C4=C(O)C(=O)c5c(ccc6c5C=CC(C)(C)O6)C4=O)C(=O)c4c(ccc5c4C=CC(C)(C)O5)C2=O)C3=O)O1 | 6.41 | > 20 µM | 5.77 | 5.52 | – |
| CC1(C)CCc2c(ccc3c2C(=O)C(O)=C(C2=C(C4=C(O)C(=O)c5c(ccc6c5CCC(C)(C)O6)C4=O)C(=O)c4c(ccc5c4CCC(C)(C)O5)C2=O)C3=O)O1 | – | – | – | 5.05 | – |
| CC1(C)C=Cc2c(ccc3c2C(=O)C(O)=C(C2=C(C4=C(O)C(=O)c5c(ccc6c5C=CC(C)(C)O6)C4=O)C(=O)c4c(ccc5c4CCC(C)(C)O5)C2=O)C3=O)O1 | 6.33 | > 20 µM | 5.74 | 5.22 | Cmax [5]: 3200 ng/mL; half-life [6]: 21.7 h; bioavailability [7]: 2.6%; Cmax [8]: 50200 ng/mL; half-life [9]: 45 h; Tmax [10]: 7.5 h; clearance [11]: 0.00733 mL/min; Vdss [12]: 27.7 mL |
| CC1(C)C=Cc2c(ccc3c2C(=O)C(O)=C(C2=C(C4=C(O)C(=O)c5c(ccc6c5C=CC(C)(C)O6)C4=O)C(=O)N(Cc4ccccc4)C2=O)C3=O)O1 | < 4.70 | – | 5.35 | 5.40 | – |
| COc1cccc2c1C(=O)C(C1=C(C3=C(O)C(=O)c4cccc(OC)c4C3=O)C(=O)c3ccccc3C1=O)=C(O)C2=O | < 4.70 | – | – | 4.89 | – |
| COc1ccc2c(c1)C(=O)C(O)=C(C1=C(C3=C(O)C(=O)c4cc(OC)ccc4C3=O)C(=O)c3ccccc3C1=O)C2=O | < 4.70 | – | 4.65 | 5.00 | – |
| COc1cc2c(cc1OC)C(=O)C(C1=C(C3=C(O)C(=O)c4cc(OC)c(OC)cc4C3=O)C(=O)c3ccccc3C1=O)=C(O)C2=O | < 4.70 | – | 4.21 | 4.92 | – |
| O=C1C(O)=C(C2=C(C3=C(O)C(=O)c4ccccc4C3=O)C(=O)c3ccccc3C2=O)C(=O)c2ccccc21 | 4.80 | 48 µM | 4.25 | 4.89 | – |
| COc1cc2c(cc1OC)C(=O)C(C1=C(C3=C(O)C(=O)c4cc(OC)c(OC)cc4C3=O)C(=O)c3cc(OC)c(OC)cc3C1=O)=C(O)C2=O | – | – | < 3.82 | 5.00 | – |

— ChEMBL document CHEMBL1221315, “Antiviral agents 2. Synthesis of trimeric naphthoquinone analogues of conocurvone and their antiviral evaluation against HIV” (Bioorg Med Chem, 2010)
